Test results taken from patent US9227955B2, “Compound having angiogenesis inhibitory activity, method for preparing same, and pharmaceutical composition comprising same” (Boryung Pharmaceutical Co., Ltd., priority 2011, dated 2016).
Entries after “also recorded” stand apart in the source; their conditions may differ. Marks after values point to notes of the source that are not given here.

Experiments:
[1] = system: eNOS (endothelial nitric oxide synthase); assay: VEGF-induced eNOS activation in HUVECs (Western blot); assay type: cell-based, human; conditions: HUVECs pretreated 1 hr, VEGF 10 ng/ml 1 hr, FIG. 9
Protocol: (§1) An examination was made to see the effect of compounds of Chemical Formula I, prepared in the Examples above, on VEGF-induced activation of AKT (serine/threonine protein kinase B)/ERK (Extracellular signal-regulated kinases) and eNOS (endothelial nitric oxide synthase) in HUVECs, as follows (endothelial nitric oxide synthase).
(§2) After 3 min of centrifugation at 4000 rpm to collect the cells, the cell pellet was washed once with PBS (phosphate buffered saline). The cell pellet suspended in a lysis buffer (50 mM HEPES pH 7.0, 250 mM NaCl, 5 mM EDTA, 0.1% Nonidet P-40, 1 mM phenylmethylsulfonyl fluoride and 0.5 mM Na orthovanadate) containing 5 μl/mL of leupeptin and aprotinin, each and the reaction was performed at 4° C. for 20 min. After the cell debris was removed by microcentrifugation, the supernatant was swiftly cooled.
(§3) Protein quantification was carried out using a Bio-Rad protein assay reagent. […]
(§4) For immunoblotting, the membrane was incubated overnight at 4° C. in a blocking solution (5% skim milk), and reacted with a primary antibody for 4 hrs. After 4 washes with Tween 20/Tris-buffered saline (TTBS), the membrane was reacted with a 1:1000 (v/v) dilution of a horseradish peroxidase-conjugated secondary antibody at room temperature for 1 hr, washed three times with TTBS, and visualized by a chemical luminescence method (Amersham Life Science).

HUVECs [2] = assay: BrdU incorporation assay, VEGF-induced cell proliferation in HUVECs; assay type: cell-based, human; conditions: for inhibition of VEGF-induced proliferation in HUVECs, in words: BrdU assay, text on Tables 7 and 8
Protocol: A BrdU incorporation assay was carried out to examine whether the proliferation of HUVECs through VEGF-induced DNA synthesis is suppressed by BRN-103. HUVECs grown as in Experimental Example 2 were seeded at a density of 1×10^4 cells/well into 96-well plates. […] Thereafter, DNA synthesis in the cells was fluorescently measured using a BrdU incorporation assay kit (Roche).
Likewise, the cells were treated with various concentrations of Compound 250 (Example 26) given in Table 8, and then with VEGF, as the same manner of that of Compound 103. Intracellular DNA was also quantified, as the same manner of that of Compound 103. For comparison, the cells were not treated (control), or were treated with 10 ng/mL VEGF, alone.

[3] = system: Aortic rings excised from C57BL/6 mice; assay: Ex vivo microvessel sprouting assay, mouse aortic rings; conditions: mouse aortic rings, 0.1, 0.5, 1 μM, 10 ng/ml VEGF 7 days, FIG. 5
Text: Sprouts from margins of the aortic rings were photographed under a microscope equipped with a camera.

[4] = system: ERK (Extracellular signal-regulated kinases); assay: VEGF-induced ERK activation in HUVECs (Western blot); assay type: cell-based, human; conditions: HUVECs pretreated 1 hr, VEGF 10 ng/ml 10 min, FIG. 9
Protocol: as §1, §2, §3, §4

[5] = Cell viability MTS assay (cytotoxicity); assay type: cell-based; conditions: human; A-431 cells, 48 hrs incubation; read-out: IC50, MTS assay for cytotoxicity against A-431
Protocol: A-431 ([…], human, ATCC CRL-1555™) cells grown in DMEM (Dulbeco's Modified Eagle's Medium, Gibco #11885) were seeded at a density of 1×10^4 cells/well into 96-well plates and incubated at 37° C. for 18 hrs under the supply of 5% CO2 until the cells stably adhered to the bottom. […] After incubation for 48 hrs in the presence of the test compound, the cells were assayed for viability.
The cells in each well was added with 21 μl of a mixture of 20:1 (v/v) of an MTS solution [(3-(4,5-dimethylthiazol-2-yl)-5-(3-carboxymethoxyphenyl)-2-(4-sulfophenyl)-2H-tetrazolium, Promega, Cat#65421; 2 mg/ml] and a PMS solution [Phenazine methosulfate, Sigma #P9625; 1 mg/ml], and incubated for 2 hrs, followed by measuring absorbance at 490 nm on a microplate reader (Molecular device, spectraMax M2). Relative to the control (media), viability by drug concentration was determined from the measurements of formazan, and the results are given in Table 2, below.

[6] = system: HUVECs (human umbelical vein endothelial cells); assay: Transwell assay, VEGF-induced cell migration in HUVECs; assay type: cell-based; conditions: for suppression of VEGF-induced migration of HUVECs, in words: transwell assay, text on Tables 3 and 4
Protocol: To examine the inhibitory effect of the compounds obtained in the Examples on VEGF (Vascular endothelial growth factor)-induced cell migration in HUVECs (human umbelical vein endothelial cells), a transwell assay was performed as follows.
HUVECs, provided from ATCC (American Type Culture Collection), were incubated in EGM-2 (Endothelial growth Medium-2 Medium) including 10% FBS, penicillin (100 unit/ml) and 100 μg/ml streptomycin sulfate plus various growth factors at 37° C. in an atmosphere of 5% CO2. After the change of the medium with growth factor-free EBM-2 (Endothelial Basal Medium-2 Medium), the cells were subjected to transwell assay.
After for 24 hours, the cells were fixed for 1 min with ethanol and were stained with a dye. Cell migration was evaluated by counting cells which moved through the pores.
In addition, cells were treated with Compound No. 250 (Example 26) at various concentrations given in Table 3, and assayed for cell migration, as conducted with Compounds 103, 110, 218, 273, 275, 276, 290, 312, 428, 442, and 509. The results were compared with those obtained after non-treatment (no treat) or treatment with 10 ng/mL VEGF.
Results were expressed as average numbers (n=3) of HUVECs which moved cross the membrane. Test results are summarized in Table 3 for compounds 103, 110, 218, 273, 275, 276, 290, 312, 428, 442, and 509, and in Table 4 for compound 250.

HUVECs [7] = assay: VEGF-induced tube formation of HUVECs (capillary structure formation assay); assay type: cell-based, human; conditions: for suppression of VEGF-induced tube formation, in words: Tables 9 and 10
Protocol: After HUVECs were seeded at a density of 3×10^5 cells/well into Matrigel-coated 48-well plates, HUVECs were with 10 ng/ml VEGF for 4 hrs. The HUVECs where tubes were formed were monitored and photographed under a microscope equipped with a camera to count cells.
HUVECs were also treated with Compound 250 (Example 26) at various concentrations given in Table 10, The HUVECs where tubes were formed were monitored and photographed under a microscope equipped with a camera, like Compound 103.

[8] = system: AKT (serine/threonine protein kinase B); assay: VEGF-induced AKT activation in HUVECs (Western blot); assay type: cell-based, human; conditions: HUVECs pretreated 1 hr, VEGF 10 ng/ml 30 min, FIG. 9
Protocol: as §1, §2, §3, §4

HUVECs [9] = assay: Wound healing assay, VEGF-induced migration of HUVECs; assay type: cell-based, human; conditions: for suppression of VEGF-induced migration of HUVECs, in words: wound healing assay, text on Tables 5 and 6
Protocol: Using a sterile, disposable cell scraper (BD Falcon, Bedford, USA), a monolayer of HUVECs was scraped, and the cells were gently washed with PBS. […] After 24 hours, the cell migration were monitored through the scraped monolayer of the cell and photographed under a microscope equipped with a camera (Canon Powershot640).
Also, Compound 250 (Example 26) was applied at various concentrations shown in Table 6 in the same manner as Compound 103, followed by monitoring and photographing the migration of the cells under the microscope. For comparison, the cells were not treated (control) or were treated with 10 ng/mL VEGF, alone.

[10] = system: aortic rings excised from Spague-Dawley rats; assay: Ex vivo microvessel sprouting assay, rat aortic rings; conditions: 10 nM, 50 nM, 100 nM, FIG. 6
Protocol: Likewise, after the aortic rings excised from six-week-old Spague-Dawley rats were treated with various concentrations (10 nM, 50 nM, 100 nM) of Compound 250 (Example 26) and then with VEGF, Sprouts from margins of the aortic rings were photographed under a microscope equipped with a camera, like Compound 103.

[11] = 1 μM, 10 ng/ml VEGF 24 hrs, n=3

O=C(Nc1cccc(Cl)c1)c1cccnc1NC1CCN(Cc2ccccc2)CC1 [Compound 103, 2-(1-Benzylpiperidin-4-ylamino)-N-(3-chlorophenyl)nicotinamide]
p-eNOS level [1]: downregualted
BrdU incorporation (HUVECs [2]; 1 μM, without VEGF): 0.7 OD 450 nm
inhibition of VEGF-induced proliferation in HUVECs, in words (HUVECs [2]): inhibited VEGF-induced proliferation in HUVECs in a dose-dependent manner
BrdU incorporation (HUVECs [2]; VEGF + 0.1 μM, 24 hrs): 1.0*** OD 450 nm
BrdU incorporation (HUVECs [2]; VEGF + 0.5 μM, 24 hrs): 0.8*** OD 450 nm
BrdU incorporation (HUVECs [2]; VEGF + 1 μM, 24 hrs): 0.7*** OD 450 nm
VEGF-induced aortic sprouting [3]: inhibited VEGF-induced aortic sprouting
expression of p-ERK [4]: did not suppress the expression of p-ERK
IC50 at 48 h [5]: 40.6 µM
No. of migration cells/field ([6]; 0.1 μM, 10 ng/ml VEGF 24 hrs, n=3): 16*** cells/field
No. of migration cells/field ([6]; 0.5 μM, 10 ng/ml VEGF 24 hrs, n=3): 12*** cells/field
No. of migration cells/field [6, 11]: 8*** cells/field
suppression of VEGF-induced migration of HUVECs, in words [6]: more suppressive than the anticancer agent sunitinib
suppression of VEGF-induced tube formation, in words (HUVECs [7]): more efficient in the inhibition of tube formation than sunitinib; also recorded: VEGF-induced tube formation was also suppressed
Number of tubes/field (HUVECs [7]; VEGF + 0.1 μM, 4 hrs): 90** tubes/Field
Number of tubes/field (HUVECs [7]; VEGF + 0.5 μM, 4 hrs): 80*** tubes/Field
Number of tubes/field (HUVECs [7]; VEGF + 1 μM, 4 hrs): 60*** tubes/Field
expression of p-AKT [8]: decreased the expression of p-AKT
Wound closure (HUVECs [9]; VEGF + 0.1 μM, 24 hrs): 200 µm
Wound closure (HUVECs [9]; VEGF + 0.5 μM, 24 hrs): 180 µm
Wound closure (HUVECs [9]; VEGF + 1 μM, 24 hrs): 155 µm
suppression of VEGF-induced migration of HUVECs, in words (HUVECs [9]): higher efficiency than sunitinib

CC(c1ncnc(Cl)c1F)N1CCC(Nc2ncccc2C(=O)Nc2cccc(Cl)c2)CC1 (stereo not shown) [Compound 250, 2-{1-[1-(6-chloro-5-fluoropyrimidin-4-yl)ethyl]piperidin-4-ylamino}-N-(3-chlorophenyl)nicotinamide]
BrdU incorporation (HUVECs [2]; 100 nM, without VEGF): 0.7 ± 0.05 OD 450 nM
inhibition of VEGF-induced proliferation in HUVECs, in words (HUVECs [2]): inhibited VEGF-induced proliferation in HUVECs
BrdU incorporation (HUVECs [2]; VEGF + 25 nM): 0.79 ± 0.02 OD 450 nM
BrdU incorporation (HUVECs [2]; VEGF + 50 nM): 0.75 ± 0.03 OD 450 nM
BrdU incorporation (HUVECs [2]; VEGF + 100 nM): 0.7 ± 0.05 OD 450 nM
IC50 at 48 h [5]: 26.1 µM
No. of migration cells/field ([6]; 100 nM, without VEGF): 4.5 ± 1.11 cells/field
No. of migration cells/field ([6]; VEGF + 25 nM): 33 ± 2.54 cells/field
No. of migration cells/field ([6]; VEGF + 50 nM): 20.3 ± 1.08 cells/field
No. of migration cells/field ([6]; VEGF + 100 nM): 12.5 ± 2.5 cells/field
suppression of VEGF-induced migration of HUVECs, in words [6]: remarkable suppressive effect
VEGF-induced aortic sprouting [10]: inhibited VEGF-induced aortic sprouting
Number of tubes/field (HUVECs [7]; 100 nM, without VEGF): 27 ± 2 tubes/field
suppression of VEGF-induced tube formation, in words (HUVECs [7]): high suppressive effect on tube formation
Number of tubes/field (HUVECs [7]; VEGF + 25 nM): 45 ± 6 tubes/field
Number of tubes/field (HUVECs [7]; VEGF + 50 nM): 35 ± 2 tubes/field
Number of tubes/field (HUVECs [7]; VEGF + 100 nM): 28 ± 4 tubes/field
Wound closure (HUVECs [9]; 100 nM, without VEGF): 125 µm
Wound closure (HUVECs [9]; VEGF + 25 nM): 210 µm
Wound closure (HUVECs [9]; VEGF + 50 nM): 165 µm
Wound closure (HUVECs [9]; VEGF + 100 nM): 120 µm
suppression of VEGF-induced migration of HUVECs, in words (HUVECs [9]): highly suppresses VEGF-induced migration of HUVECs

CCN(CC)CCNC(=O)c1c(C)[nH]c(/C=C2\C(=O)Nc3ccc(F)cc32)c1C [Sunitinib, sunitinib, reference compound]
BrdU incorporation (HUVECs [2]; VEGF + 1 μM, 24 hrs): 0.84*** OD 450 nm
IC50 at 48 h [5]: 22 µM
No. of migration cells/field [6, 11]: 16.5*** cells/field
Number of tubes/field (HUVECs [7]; VEGF + 1 μM, 4 hrs): 100*** tubes/Field
Wound closure (HUVECs [9]; VEGF + 1 μM, 24 hrs): 210 µm
